ChEMBL document CHEMBL1131815, “Derivatives of (R)-2-amino-5-methoxytetralin: antagonists and inverse agonists at the dopamine D2A receptor” (Bioorg Med Chem Lett, 1999)
pKi: −log10 of the molar value.

Legend:
[1] = target: T1, D(2) dopamine receptor (Homo sapiens, UniProt P14416)
[2] = target: T1, D(2) dopamine receptor; assay: Displacement of [3H]raclopride from human dopamine D2A receptors expressed in LtK cells; assay type: cell-based
[3] = target: T1, D(2) dopamine receptor; assay: Displacement of [3H]quinpirole from human dopamine D2A receptors expressed in LtK cells; assay type: cell-based

T1 sequence (P14416 whole entry): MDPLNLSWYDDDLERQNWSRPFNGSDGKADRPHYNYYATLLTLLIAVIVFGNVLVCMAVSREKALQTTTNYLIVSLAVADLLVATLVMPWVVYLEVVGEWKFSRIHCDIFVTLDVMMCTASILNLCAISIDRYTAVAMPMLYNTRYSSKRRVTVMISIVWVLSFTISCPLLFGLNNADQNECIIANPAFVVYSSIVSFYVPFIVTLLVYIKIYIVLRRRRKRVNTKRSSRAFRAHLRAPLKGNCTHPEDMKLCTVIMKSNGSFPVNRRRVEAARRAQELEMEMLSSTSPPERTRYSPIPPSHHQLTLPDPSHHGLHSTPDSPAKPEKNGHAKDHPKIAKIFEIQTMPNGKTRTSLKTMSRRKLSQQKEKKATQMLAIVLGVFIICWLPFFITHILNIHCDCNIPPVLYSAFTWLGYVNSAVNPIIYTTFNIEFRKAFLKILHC

| Structure (SMILES) | nH [1] | pKi [2] | pKi [3] |
| --- | --- | --- | --- |
| CCCN(Cc1ccccc1)[C@@H]1CCc2c(cccc2OC)C1 | 1.05 | 7.18 | 7.12 |
| NCCc1ccc(O)c(O)c1 | 0.65 |  |  |
| CCCN[C@@H]1CCc2c(cccc2OC)C1 | 1.06 | 6.94 | 7.08 |
| CCCN(Cc1ccc(OC)cc1)[C@@H]1CCc2c(cccc2OC)C1 | 0.94 | 7.66 | 7.19 |
| CCCN(CCC)[C@@H]1CCc2c(cccc2OC)C1 | 1.06 | 7.34 | 8.20 |
| CCCN(CCC)[C@@H]1CCc2c(F)cccc2C1 | 0.89 |  |  |

Now from value to molecule:

| nH [1] | pKi [2] | pKi [3] | Structure (SMILES) |
| --- | --- | --- | --- |
| 0.83 | 6.90 | 6.93 | CCCN(Cc1ccco1)[C@@H]1CCc2c(cccc2OC)C1 |
| 0.83 | 6.00 | 5.88 | COc1cccc2c1CC[C@@H](NCc1ccccc1)C2 |
| 0.9 | 6.82 | 6.47 | CCCN(Cc1cccs1)[C@@H]1CCc2c(cccc2OC)C1 |
| 0.86 |  |  | CCCN(Cc1ccccc1)[C@@H]1CCc2c(F)cccc2C1 |
| 0.9 | 7.23 | 6.67 | CCCN(Cc1ccc([N+](=O)[O-])cc1)[C@@H]1CCc2c(cccc2OC)C1 |
| 0.9 | 7.36 | 7.16 | CCCN(Cc1ccc(F)cc1)[C@@H]1CCc2c(cccc2OC)C1 |
|  | < 5.30 | < 5.30 | COc1cccc2c1CC[C@@H](N(Cc1ccccc1)Cc1ccccc1)C2 |
